Values quoted from earlier work in patent US20260297044A1, “INHIBITORS OF SPINSTER HOMOLOG 2 (SPNS2) FOR USE IN THERAPY” (University of Virginia Patent Foundation, priority 2023, published 2026).

Test system: Spns2
Details: two models of kidney fibrosis, mice

In the case of `CCCCCCCCCCc1ccc(-c2noc(CCCN)n2)cc1` [SLF1081851], the fibrosis is given as “significantly less fibrosis” and the “function of the injured kidney” value is given as “improved function of the injured kidney”.
